Publication PMC5829263, “Homoarginine and inhibition of human arginase activity: kinetic characterization and biological relevance” (Scientific Reports, 2018)
“Also recorded” adds a separate entry of the source. Like-named read-outs stand apart in the source and are kept apart here.

Legend:
[1] = target: T1, recombinant human arginase 1 (Homo sapiens, UniProt P05089); assay: Arginase 1 inhibition, UPLC-MS measurement of ARG to ORN conversion in HEK293T cell lysate; settings: for arginase 1 inhibitor assessment in words: at the concentrations tested, both ARG concentrations; for remaining activity at 1 µM / remaining activity at 10 µM / remaining activity at 100 µM / remaining activity at 1000 µM / remaining activity at 10000 µM / remaining activity at 0.1 µM: read-out: % of control activity at the corresponding [Inhibitor] ± SE, arginase 1; for remaining activity at 1 µM / remaining activity at 10 µM / remaining activity at 100 µM / remaining activity at 1000 µM / remaining activity at 10000 µM / remaining activity at 0.1 µM / % of control activity at the corresponding [Inhibitor] ± SE: mean of two experiments; for remaining activity at 10000 µM: inhibitor 10,000 µM; for % of control activity at the corresponding [Inhibitor] ± SE: arginase 1;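 on all read-outs here: arginase 1–expressing HEK293T lysate at 0.05 mg/mL in pH 7.4 phosphate buffer, inhibitor preincubated 5 min with enzyme, then reaction started by adding ARG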
T1 sequence (P05089 1-322): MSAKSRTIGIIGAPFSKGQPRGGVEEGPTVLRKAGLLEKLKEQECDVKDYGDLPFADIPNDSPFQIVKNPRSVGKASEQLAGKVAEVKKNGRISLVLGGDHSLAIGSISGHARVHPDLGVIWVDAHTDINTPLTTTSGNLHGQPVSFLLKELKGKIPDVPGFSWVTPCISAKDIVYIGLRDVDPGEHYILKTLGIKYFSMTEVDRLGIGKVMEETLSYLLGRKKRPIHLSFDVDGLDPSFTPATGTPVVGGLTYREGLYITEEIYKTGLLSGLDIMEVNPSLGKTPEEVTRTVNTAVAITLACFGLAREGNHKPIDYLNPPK
Protocol: (§1) Following a 5-min pre-equilibration period reactions were initiated by the addition of the cell lysate solution in 0.05 M phosphate buffer to a pre-equilibrated aqueous solution of the substrate (ARG).
(§2) The samples were vortex mixed (20 sec) and cooled in an ice/water bath for 10 min prior to centrifugation (5 min, 18,000 × g, room temperature) to precipitate the proteins. An aliquot of the supernatant layer was diluted with a 7:3 mobile phase A/mobile phase B solution into glass UPLC vial inserts.
(§3) Incubation mixtures comprised of HEK293T cell lysate expressing arginase 1 (0.05 mg/mL) or arginase 2 (0.1 mg/mL), phosphate buffer (0.05 M, pH 7.4), inhibitor (0, 0.1, 1, 10, 100, 1000 or 10000 μM) and ARG (0.1, 2 or 3 mM). Following a 5-min pre-incubation of the potential inhibitor with arginase 1 or arginase 2, reactions were initiated by the addition of a pre-equilibrated solution of the substrate ARG.
Ki values were derived from fitting the competitive inhibition equation to experimental data. Ki data are the mean of three singlicate experiments.

[2] = target: T2, recombinant human arginase 2 (Homo sapiens, UniProt P78540); assay: Arginase 2 inhibition, UPLC-MS measurement of ARG to ORN conversion in HEK293T cell lysate; settings: for arginase 2 inhibitor assessment in words: at the concentrations tested; for remaining activity at 1 µM / remaining activity at 10 µM / remaining activity at 100 µM / remaining activity at 1000 µM / remaining activity at 10000 µM / remaining activity at 0.1 µM: read-out: % of control activity at the corresponding [Inhibitor] ± SE, arginase 2; for remaining activity at 1 µM / remaining activity at 10 µM / remaining activity at 100 µM / remaining activity at 1000 µM / remaining activity at 10000 µM / remaining activity at 0.1 µM / % of control activity at the corresponding [Inhibitor] ± SE: mean of two experiments; for remaining activity at 10000 µM: inhibitor 10,000 µM; for % of control activity at the corresponding [Inhibitor] ± SE: arginase 2;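 on all read-outs here: HEK293T lysate carrying arginase 2 at 0.1 mg/mL in 0.05 M phosphate buffer pH 7.4, inhibitor preincubated with enzyme 5 min before ARG addition started the reaction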
T2 sequence (P78540 23-354): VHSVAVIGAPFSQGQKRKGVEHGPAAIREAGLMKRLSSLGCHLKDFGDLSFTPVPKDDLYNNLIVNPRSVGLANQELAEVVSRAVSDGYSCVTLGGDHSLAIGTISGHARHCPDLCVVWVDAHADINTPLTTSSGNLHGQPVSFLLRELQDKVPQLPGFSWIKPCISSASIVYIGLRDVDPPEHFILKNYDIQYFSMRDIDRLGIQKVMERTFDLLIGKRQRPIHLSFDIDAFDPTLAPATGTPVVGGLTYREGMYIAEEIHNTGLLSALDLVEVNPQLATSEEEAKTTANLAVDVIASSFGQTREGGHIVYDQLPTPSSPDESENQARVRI
Protocol: as §1, §2, §3
Sample were diluted 3:17 in mobile phase solution prior injection.

SMILES: NCCCCN=C(N)N [AG, agmatine]
- arginase 1 inhibitor assessment in words [1]: poor arginase 1 inhibitors; also recorded: no significant inhibition
- remaining activity at 1 µM ([1]; ARG 100 µM, inhibitor 1 µM): 94 ± 7%
- remaining activity at 10 µM ([1]; ARG 100 µM, inhibitor 10 µM): 82 ± 5%
- remaining activity at 100 µM ([1]; ARG 100 µM, inhibitor 100 µM): 110 ± 24%
- remaining activity at 1000 µM ([1]; ARG 100 µM, inhibitor 1,000 µM): 84 ± 8%
- remaining activity at 10000 µM ([1]; ARG 100 µM): 72 ± 3%
- remaining activity at 1 µM ([1]; ARG 3 mM, inhibitor 1 µM): 84 ± 13%
- remaining activity at 10 µM ([1]; ARG 3 mM, inhibitor 10 µM): 100 ± 3%
- remaining activity at 100 µM ([1]; ARG 3 mM, inhibitor 100 µM): 100 ± 8%
- remaining activity at 1000 µM ([1]; ARG 3 mM, inhibitor 1,000 µM): 98 ± 13%
- remaining activity at 10000 µM ([1]; ARG 3 mM): 78 ± 7%
- arginase 2 inhibitor assessment in words [2]: poor inhibitors; also recorded: no significant inhibition
- remaining activity at 1 µM ([2]; ARG 100 µM, inhibitor 1 µM): 103 ± 4%
- remaining activity at 10 µM ([2]; ARG 100 µM, inhibitor 10 µM): 98 ± 7%
- remaining activity at 100 µM ([2]; ARG 100 µM, inhibitor 100 µM): 92 ± 6%
- remaining activity at 1000 µM ([2]; ARG 100 µM, inhibitor 1,000 µM): 78 ± 5%
- remaining activity at 10000 µM ([2]; ARG 100 µM): 58 ± 1%
- remaining activity at 1 µM ([2]; ARG 2 mM, inhibitor 1 µM): 104 ± 4%
- remaining activity at 10 µM ([2]; ARG 2 mM, inhibitor 10 µM): 96 ± 3%
- remaining activity at 100 µM ([2]; ARG 2 mM, inhibitor 100 µM): 103 ± 3%
- remaining activity at 1000 µM ([2]; ARG 2 mM, inhibitor 1,000 µM): 96 ± 3%
- remaining activity at 10000 µM ([2]; ARG 2 mM): 87 ± 8%

SMILES: [H]/N=C(/NC)NCCC[C@H](N)C(=O)O [L-NMMA, NG-Monomethyl-L-arginine]
- remaining activity at 0.1 µM ([1]; ARG 100 µM, inhibitor 0.1 µM): 95 ± 2%
- remaining activity at 1 µM ([1]; ARG 100 µM, inhibitor 1 µM): 91 ± 6%
- remaining activity at 10 µM ([1]; ARG 100 µM, inhibitor 10 µM): 104 ± 11%
- remaining activity at 100 µM ([1]; ARG 100 µM, inhibitor 100 µM): 95 ± 6%
- remaining activity at 1000 µM ([1]; ARG 100 µM, inhibitor 1,000 µM): 116 ± 1%
- remaining activity at 0.1 µM ([1]; ARG 3 mM, inhibitor 0.1 µM): 106 ± 15%
- remaining activity at 1 µM ([1]; ARG 3 mM, inhibitor 1 µM): 107 ± 11%
- remaining activity at 10 µM ([1]; ARG 3 mM, inhibitor 10 µM): 95 ± 9%
- remaining activity at 100 µM ([1]; ARG 3 mM, inhibitor 100 µM): 94 ± 8%
- remaining activity at 1000 µM ([1]; ARG 3 mM, inhibitor 1,000 µM): 97 ± 11%
- remaining activity at 0.1 µM ([2]; ARG 100 µM, inhibitor 0.1 µM): 101 ± 1%
- remaining activity at 1 µM ([2]; ARG 100 µM, inhibitor 1 µM): 103 ± 2%
- remaining activity at 10 µM ([2]; ARG 100 µM, inhibitor 10 µM): 106 ± 1%
- remaining activity at 100 µM ([2]; ARG 100 µM, inhibitor 100 µM): 106 ± 9%
- remaining activity at 1000 µM ([2]; ARG 100 µM, inhibitor 1,000 µM): 111 ± 4%
- remaining activity at 0.1 µM ([2]; ARG 2 mM, inhibitor 0.1 µM): 96 ± 7%
- remaining activity at 1 µM ([2]; ARG 2 mM, inhibitor 1 µM): 105 ± 4%
- remaining activity at 10 µM ([2]; ARG 2 mM, inhibitor 10 µM): 109 ± 8%
- remaining activity at 100 µM ([2]; ARG 2 mM, inhibitor 100 µM): 104 ± 3%
- remaining activity at 1000 µM ([2]; ARG 2 mM, inhibitor 1,000 µM): 118 ± 4%

SMILES: CN(C)C(N)=NCCC[C@H](N)C(=O)O [ADMA, asymmetric dimethylarginine]
- % of control activity at the corresponding [Inhibitor] ± SE ([1]; ARG 100 µM, inhibitor 0.1 µM): 102 ± 9%
- % of control activity at the corresponding [Inhibitor] ± SE ([1]; ARG 100 µM, inhibitor 1 µM): 109 ± 4%
- % of control activity at the corresponding [Inhibitor] ± SE ([1]; ARG 100 µM, inhibitor 10 µM): 120 ± 12%
- % of control activity at the corresponding [Inhibitor] ± SE ([1]; ARG 100 µM, inhibitor 100 µM): 109 ± 8%
- % of control activity at the corresponding [Inhibitor] ± SE ([1]; ARG 100 µM, inhibitor 1,000 µM): 87 ± 1%
- % of control activity at the corresponding [Inhibitor] ± SE ([1]; ARG 3 mM, inhibitor 0.1 µM): 98 ± 7%
- % of control activity at the corresponding [Inhibitor] ± SE ([1]; ARG 3 mM, inhibitor 1 µM): 89 ± 2%
- % of control activity at the corresponding [Inhibitor] ± SE ([1]; ARG 3 mM, inhibitor 10 µM): 90 ± 1%
- % of control activity at the corresponding [Inhibitor] ± SE ([1]; ARG 3 mM, inhibitor 100 µM): 86 ± 4%
- % of control activity at the corresponding [Inhibitor] ± SE ([1]; ARG 3 mM, inhibitor 1,000 µM): 69 ± 4%
- arginase 1 inhibitor assessment in words [1]: poor arginase 1 inhibitors
- % of control activity at the corresponding [Inhibitor] ± SE ([2]; ARG 100 µM, inhibitor 0.1 µM): 115 ± 7%
- % of control activity at the corresponding [Inhibitor] ± SE ([2]; ARG 100 µM, inhibitor 1 µM): 112 ± 13%
- % of control activity at the corresponding [Inhibitor] ± SE ([2]; ARG 100 µM, inhibitor 10 µM): 109 ± 9%
- % of control activity at the corresponding [Inhibitor] ± SE ([2]; ARG 100 µM, inhibitor 100 µM): 94 ± 14%
- % of control activity at the corresponding [Inhibitor] ± SE ([2]; ARG 100 µM, inhibitor 1,000 µM): 104 ± 3%
- % of control activity at the corresponding [Inhibitor] ± SE ([2]; ARG 2 mM, inhibitor 0.1 µM): 80 ± 7%
- % of control activity at the corresponding [Inhibitor] ± SE ([2]; ARG 2 mM, inhibitor 1 µM): 84 ± 12%
- % of control activity at the corresponding [Inhibitor] ± SE ([2]; ARG 2 mM, inhibitor 10 µM): 92 ± 12%
- % of control activity at the corresponding [Inhibitor] ± SE ([2]; ARG 2 mM, inhibitor 100 µM): 90 ± 14%
- % of control activity at the corresponding [Inhibitor] ± SE ([2]; ARG 2 mM, inhibitor 1,000 µM): 87 ± 15%
- arginase 2 inhibitor assessment in words [2]: poor arginase inhibitors
